# Results taken from patent US9763991B2, “Composition for the treatment of neurobehavioral disorders” (Cannabis Science International Holding B.V., priority 2013, dated 2017).
# Legend:
# [1] = test system: C57BL6 mice; test: Sleep monitoring after oral dosing (gavage) of Cannabinol in olive oil; assay type: in vivo, mouse; conditions: all 5 doses (0.01-0.5 mg/Kg) by oral gavage in olive oil, single administration at 3 consecutive days, vs pure olive oil
# Method: (§1) The experiment is designed to test a range of concentrations around the equivalent previously tested in humans for single-dose kinetics. Animal experiments were performed following the directive 2010/63/EU on the protection of animals used for scientific purposes.
# (§2) 6 groups of 5-6 male C57BL6 of approximately 28 g body weight (range 27-30 g) with the use of one cage for 3 mice: Group 0: Pure Olive Oil, Group 1: CBN at 0.01 mg/Kg body weight, Group 2: CBN at 0.05 mg/Kg body weight, Group 3: CBN at 0.1 mg/Kg body weight, Group 4: CBN at 0.25 mg/Kg body weight and Group 5: CBN at 0.50 mg/Kg body weight
# Solutions (named CBN 0, CBN 1, CBN 2, CBN 3, CBN 4, CBN 5, Pure Olive Oil) having different cannabinol concentrations dissolved in olive oil were prepared in sterile conditions, under a laminar flood hood. Pure olive oil was used as a negative control.
# The volume that can be administered to the animal should not exceed 10 ml/kg. For a mouse of 20 g the maximum volume corresponds to 0.2 ml. For this procedure a volume of 0.1 ml will be used (half of the maximum volume). 1 ml of each stock solution (cannabinol, CBN 1-5 and pure olive oil, POO) was dispensed into Falcon vials. Prior to the administration, the weight of each mouse was recorded and the appropriate amount of cannabinol solution was determined. […]
# [2] = test system: C57BL6 mice; test: Safety data, body weight and organ weight after oral dosing (gavage) of Cannabinol; assay type: in vivo, mouse
# Method: as §1, §2
# The volume that can be administered to the animal should not exceed 10 ml/kg. For a mouse of 20 g the maximum volume corresponds to 0.2 ml. For this procedure a volume of 0.1 ml will be used (half of the maximum volume). 1 ml of each stock solution (cannabinol, CBN 1-5 and pure olive oil, POO) was dispensed into Falcon vials. Prior to the administration, the weight of each mouse was recorded and the appropriate amount of cannabinol solution was determined. For the POO group always 0.1 ml was dispensed in 6 an eppendorf vessel, for the other experimental groups transfer the amounts of CBN 1-5 and POO according to table 2 were used in an eppendorf vial. The amounts to be administered were adjusted depending on mouse group and individual weights.
# Monitor the animal for potential complications: Esophagitis (inflammation of the oesophagus), perforation of the oesophagus or trachea, damage to the cardiac sphincter (upper stomach sphincter) insertion of needle and solution into the lungs, lung perforation, damage to the oral cavity, aspiration of solution into the lungs from regurgitation, traumatic injuries related to improper restrain.
# The mean weights (and standard deviations) of spleen, liver and kidney from all mice groups at sacrifice are monitored.
structure (smiles),measurement,setting,value
CCCCCc1cc(O)c2c(c1)OC(C)(C)c1ccc(C)cc1-2 [Cannabinol],number of mice sleeping 30 minutes after administration,[1],increased significantly
same,aggressive behaviour and clinical alterations (tremors),"[2]; 0.01-0.5 mg/Kg daily by oral gavage, male C57BL6 mice","No presence of aggressive behaviour, neither evident clinical alterations"
same,liver and kidney weights at sacrifice,"[2]; among experimental groups, 0.01-0.5 mg/Kg oral",No significant changes
same,body weight change,"[2]; within experimental groups with time or among groups at fixed time, 0.01-0.5 mg/Kg oral",No significant changes
